One test deals with recombinant human ACC1 (Homo sapiens (Human), UniProt Q13085). The experiment in a line: Measurement of inhibitory activity on human ACC1 (MALDI-TOF MS, acetyl CoA to malonyl CoA conversion). The class given is biochemical. An excerpt:
Preparation 2: Preparation of Recombinant Human ACC1
After a cDNA encoding human ACC1 (1 amino acid residue to 2346 amino acid residues from the N-terminus) was cloned from human liver cDNA library (BioChain), human ACC1 gene containing myc-tag and His-tag sequence at 3′ terminus was inserted into pIEXBAC3 (Novagen). Recombinant baculovirus was generated using FlashBACGOLD system (Oxford Expression Technologies) according to the manufacturer's protocol. To express human ACC1, Sf-9 cells were infected with recombinant baculovirus. After infected cells were disrupted, the filtrated lysate was subjected to Ni-affinity chromatography and anion-exchange chromatography. The fractions containing human ACC1 protein were pooled as recombinant human ACC1 solution.
The Measurement of Inhibitory Activity on Human ACC1 and the ACC2
Recombinant human ACC1 and recombinant human ACC2, which were prepared by the method mentioned above, were preincubated with assay buffer solution (50 mM HEPES-KOH (pH 7.4), 10 mM magnesium chloride, 6-10 mM potassium citrate, 4 mM reduced form of glutathione, 1.5 mg/ml bovine serum albumin) for one hour. Then, 0.2 μL of each this invention compound solution (in DMSO) were dispensed to 384-well microplate, 5 μL of the preincubated enzyme solution and 5 μL of substrate solution (50 mM HEPES-KOH (pH 7.4), 1 mM ATP, 0.8 mM acetyl CoA and 25-50 mM potassium bicarbonate) were added to microplate. After centrifugation and shaking, the reaction mixtures were incubated in a humidified box at room temperature for 1 to 3 hours. After the incubation, the enzyme reactions were stopped by the addition of EDTA. Then, after the samples were cocrystallized with CHCA (α-cyano-4-hydroxy cinnamic acid) matrices on MALDI target plate, by using the matrix assist laser […] time-of-flight mass spectrometer (MALDI-TOF MS), samples were measured in reflector negative mode. Deprotonated ions of acetyl CoA (AcCoA) of substrate and malonyl CoA (MalCoA) of the reaction product were detected, then, the conversion rates of acetyl CoA to malonyl CoA was calculated by the intensity of [MalCoA-H]−/(Intensity of [MalCoA-H]−+Intensity of [AcCoA-H]−) using each signal strength. […] In addition, potassium citrate concentrations in assay buffer solution, potassium hydrogen carbonate concentrations in substrate solution and incubation time were adjusted by each lot of enzyme.

The target of another test is recombinant human ACC2 (Homo sapiens (Human), UniProt O00763). The test is described as follows: Measurement of inhibitory activity on human ACC2 (MALDI-TOF MS, acetyl CoA to malonyl CoA conversion). The class given is biochemical. Summed up:
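His-tagged human ACC2 (residues 27–2458) from baculovirus-infected Sf-9 cells was preincubated 1 h in pH 7.4 HEPES-KOH buffer with MgCl2, 6-10 mM potassium citrate, glutathione and BSA. Substrate solution held 1 mM ATP, 0.8 mM acetyl CoA and 25-50 mM bicarbonate. After 1–3 h at room temperature, malonyl CoA/(malonyl+acetyl CoA) was read by negative-mode MALDI-TOF MS; citrate, bicarbonate and time varied by enzyme lot.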

Some results are limits rather than exact numbers.

Sequence of recombinant human ACC2 (O00763 27-2458): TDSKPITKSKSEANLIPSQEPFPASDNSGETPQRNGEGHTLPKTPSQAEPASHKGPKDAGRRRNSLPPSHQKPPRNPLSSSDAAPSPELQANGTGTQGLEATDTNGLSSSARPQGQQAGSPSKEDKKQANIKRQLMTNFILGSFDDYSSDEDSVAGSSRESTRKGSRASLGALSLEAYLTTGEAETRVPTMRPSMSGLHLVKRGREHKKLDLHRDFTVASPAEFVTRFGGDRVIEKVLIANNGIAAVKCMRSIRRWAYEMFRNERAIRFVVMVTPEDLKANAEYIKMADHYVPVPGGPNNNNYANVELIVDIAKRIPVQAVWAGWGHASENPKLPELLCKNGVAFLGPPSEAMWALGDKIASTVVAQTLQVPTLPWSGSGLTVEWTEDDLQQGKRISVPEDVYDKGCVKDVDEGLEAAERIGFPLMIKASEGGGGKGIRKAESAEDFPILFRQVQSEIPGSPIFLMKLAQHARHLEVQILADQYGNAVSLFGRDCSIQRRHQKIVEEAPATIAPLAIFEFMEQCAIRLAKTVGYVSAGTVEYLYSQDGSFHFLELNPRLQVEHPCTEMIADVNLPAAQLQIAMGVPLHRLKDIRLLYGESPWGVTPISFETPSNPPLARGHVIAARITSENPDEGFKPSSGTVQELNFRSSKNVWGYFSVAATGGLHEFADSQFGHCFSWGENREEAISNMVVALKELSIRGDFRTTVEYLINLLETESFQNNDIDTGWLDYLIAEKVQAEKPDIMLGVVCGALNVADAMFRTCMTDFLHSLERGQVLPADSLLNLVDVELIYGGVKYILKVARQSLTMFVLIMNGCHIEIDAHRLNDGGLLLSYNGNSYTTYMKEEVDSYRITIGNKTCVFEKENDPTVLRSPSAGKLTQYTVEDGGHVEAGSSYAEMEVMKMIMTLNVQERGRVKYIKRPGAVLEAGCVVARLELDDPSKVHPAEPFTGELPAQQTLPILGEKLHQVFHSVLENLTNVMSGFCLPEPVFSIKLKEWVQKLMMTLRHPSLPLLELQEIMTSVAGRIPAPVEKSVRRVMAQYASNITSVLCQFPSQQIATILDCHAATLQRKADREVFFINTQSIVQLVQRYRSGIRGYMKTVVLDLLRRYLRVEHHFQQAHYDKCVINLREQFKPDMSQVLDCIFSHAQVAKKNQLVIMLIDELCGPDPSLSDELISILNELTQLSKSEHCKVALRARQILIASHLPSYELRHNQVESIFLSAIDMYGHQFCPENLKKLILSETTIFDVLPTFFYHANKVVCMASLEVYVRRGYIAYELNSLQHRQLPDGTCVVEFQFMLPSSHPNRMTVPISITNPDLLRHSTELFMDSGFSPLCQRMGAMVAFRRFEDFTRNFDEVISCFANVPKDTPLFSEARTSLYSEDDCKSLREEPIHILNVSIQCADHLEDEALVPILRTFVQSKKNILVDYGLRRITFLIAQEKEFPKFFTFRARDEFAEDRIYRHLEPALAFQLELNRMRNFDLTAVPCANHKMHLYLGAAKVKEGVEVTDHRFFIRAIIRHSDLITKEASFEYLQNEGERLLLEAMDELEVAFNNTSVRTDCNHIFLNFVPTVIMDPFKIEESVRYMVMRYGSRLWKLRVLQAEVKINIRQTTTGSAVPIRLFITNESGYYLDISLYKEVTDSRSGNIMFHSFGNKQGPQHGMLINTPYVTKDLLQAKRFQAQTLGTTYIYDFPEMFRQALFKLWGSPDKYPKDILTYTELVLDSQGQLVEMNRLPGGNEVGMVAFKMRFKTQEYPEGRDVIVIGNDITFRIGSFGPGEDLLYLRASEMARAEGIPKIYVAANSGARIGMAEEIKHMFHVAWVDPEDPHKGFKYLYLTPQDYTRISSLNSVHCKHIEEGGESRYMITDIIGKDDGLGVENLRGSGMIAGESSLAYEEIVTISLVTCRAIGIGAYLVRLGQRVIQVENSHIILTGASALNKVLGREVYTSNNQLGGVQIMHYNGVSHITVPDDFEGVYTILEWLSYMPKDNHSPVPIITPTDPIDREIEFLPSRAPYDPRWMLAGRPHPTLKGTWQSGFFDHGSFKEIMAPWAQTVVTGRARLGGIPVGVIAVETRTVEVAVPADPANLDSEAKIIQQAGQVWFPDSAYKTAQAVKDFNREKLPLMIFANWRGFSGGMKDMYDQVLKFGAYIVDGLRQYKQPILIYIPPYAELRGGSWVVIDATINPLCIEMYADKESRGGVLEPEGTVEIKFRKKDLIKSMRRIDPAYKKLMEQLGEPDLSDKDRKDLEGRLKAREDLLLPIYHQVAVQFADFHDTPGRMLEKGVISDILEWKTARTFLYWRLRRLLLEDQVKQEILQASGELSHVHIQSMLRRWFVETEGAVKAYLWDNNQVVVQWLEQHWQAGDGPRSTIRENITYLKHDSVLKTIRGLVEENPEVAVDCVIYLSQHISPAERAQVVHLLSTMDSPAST

`CC(=O)N[C@@H](C)CC(=O)c1ccc(Oc2ccc(OCC3CC3)cc2Cl)cc1` [Compound I-001]: the IC50 – broadly, the concentration that inhibits the measured activity by half – at recombinant human ACC1 was > 100000 nM; on recombinant human ACC2 (Table 154) it was 71 nM.
On to `CC(=O)N[C@@H](C)CC(=O)c1cnc(Oc2ccc(OCC3CC3)cc2Cl)s1` [Compound I-002], for which the IC50 is > 100000 nM on recombinant human ACC1 and 770 nM on recombinant human ACC2 (Table 154).
Turning to `CCCc1ccc(Oc2ccc(OC[C@H](C)NC(=O)OC(C)(C)C)cn2)c(Cl)c1` [Compound I-003], the half-maximal inhibitory concentration (IC50) at recombinant human ACC1 was > 100000 nM.
Turning to `CC(=O)N[C@@H](C)COc1cnc(Oc2ccc3nc(C(C)C)oc3c2Cl)cn1` [Compound I-037], the IC50 at recombinant human ACC1 was > 100000 nM; at recombinant human ACC2 (Table 154) it was 167 nM.
Regarding `CCn1c(=O)sc2c(F)c(Oc3cnc(O[C@@H](C)[C@H](C)NC(C)=O)cn3)ccc21` [Compound I-058], at recombinant human ACC1, the concentration for half-maximal inhibition (IC50) is > 100000 nM.
For `CC(=O)N[C@@H](C)CO[C@H]1CC[C@H](Oc2ccc3nn(C(C)C)cc3c2Cl)CC1` [Compound I-067], the half-maximal inhibitory concentration (IC50) at recombinant human ACC1 is > 100000 nM; at recombinant human ACC2 (Table 154), 933 nM.
For `CC(=O)N[C@@H](C)CO[C@H]1CC[C@H](Oc2ncc3cc(Br)ccc3n2)CC1` [Compound I-079] the same measures were > 100000 nM and 1760 nM.
For `CC(=O)N[C@@H](C)COc1cnc(Oc2ccc3nc(C(C)C)ncc3c2Cl)cn1` [Compound I-081] the same measures were > 100000 nM and 344 nM.
As for `CC(=O)N[C@@H](C)COc1cnc(Oc2ccc(C(=O)NC3CCOCC3)c(F)c2F)cn1` [Compound I-091], at recombinant human ACC1, the IC50 was > 100000 nM.
For `CC(=O)N[C@@H](C)CO[C@H]1C[C@H](COc2ccc3nc(C(C)(F)F)sc3c2Cl)C1` [Compound I-098], the values for the concentration for half-maximal inhibition (IC50) on recombinant human ACC1 and at recombinant human ACC2 (Table 154) were > 100000 nM and 792 nM, respectively.
For `CCOc1nc2ccc(OC[C@H]3C[C@H](OC[C@H](C)NC(C)=O)C3)c(C#N)c2s1` [Compound I-103] the same measures were > 100000 nM and 4500 nM.
As for `CC(=O)N[C@H]1CCC[C@@H]1Oc1ccc(Oc2ccc3nc(C(C)C)sc3c2Cl)cn1` [Compound I-106], the IC50 on recombinant human ACC1 was > 100000 nM; on recombinant human ACC2 (Table 154) it was 91 nM.
As for `CC(=O)N[C@@H](C)CO[C@H]1CC[C@H](Oc2nc3c(F)c(C#N)c(OCC(F)F)c(F)c3n2C)CC1` [Compound I-747], the IC50 on recombinant human ACC2 (Tables 155-159) came to 44 nM.
Same read-out and setting: next, `CC(=O)N[C@@H](C)CC[C@H]1OC[C@H](Oc2nc3c(F)cc(OCC(F)F)c(Cl)c3n2C)CO1` [Compound I-748]: 5 nM.
